# According to patent US20050084908A1, “Methods for detecting binding of low-molecular-weight compound and its binding partner molecule” (CHUGAI SEIYAKU KABUSHIKI KAISHA, priority 2000, published 2005):
# Where “and” joins values, the source holds several entries; their conditions need not be identical. Equal values may be shown once.
# T1: Recombinant human Vitamin D3 receptor (VDR) (Homo sapiens, UniProt P11473)
# T1 construct: purchased Pan Vera Corp
# T1 sequence (P11473 1-427): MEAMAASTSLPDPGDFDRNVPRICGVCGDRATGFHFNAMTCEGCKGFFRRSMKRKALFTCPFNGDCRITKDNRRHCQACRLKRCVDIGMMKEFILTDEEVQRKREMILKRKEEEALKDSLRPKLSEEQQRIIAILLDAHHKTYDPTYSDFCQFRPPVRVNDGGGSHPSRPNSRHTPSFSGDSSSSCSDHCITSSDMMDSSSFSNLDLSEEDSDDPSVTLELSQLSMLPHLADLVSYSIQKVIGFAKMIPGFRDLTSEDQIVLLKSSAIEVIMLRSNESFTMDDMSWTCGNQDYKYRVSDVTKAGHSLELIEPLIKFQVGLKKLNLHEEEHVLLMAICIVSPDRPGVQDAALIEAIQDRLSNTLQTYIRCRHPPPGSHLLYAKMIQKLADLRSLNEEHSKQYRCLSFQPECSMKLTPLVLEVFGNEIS
# Tests used:
# [1] = biological target: T1, Recombinant human Vitamin D3 receptor (VDR); experiment: Inhibition of binding of immobilized ED-533 to VDR (SPR, BIACORE 3000); conditions: VDR 100 nM; for inhibitory activity compared with 1,25(OH)2 vitamin D3 (in words): compound 0, 10, 100 or 1000 nM, FIG. 7; for IC50: test compound 0-1000 nM, 1 hr room temperature, 5% DMSO
# Procedure: HBS-EP containing 5% DMSO was used as a running buffer, and the flow rate was set at 5 μl/min. Carboxyl groups of carboxymethyl dextran on the Sensor Chip CM5 were activated by injecting 100 μl of 0.05 M N-hydroxysuccinimide (NHS)/0.2 M N-ethyl-N′-(3-dimethyl aminopropyl)carbodiimide (EDC). […] Aliquots (10 to 40 μl) were injected onto the chip and immobilized by the amine coupling method. Excessive activated groups were blocked by injecting 100 μl of ethanolamine, pH 8.5. Non-covalently bound substances were washed out by injecting 10 μl each of 50% aqueous DMSO solution and 50% PrOH/10% DMSO/50 mM HCl.
# The structural formulae of OCT and ED-71 are represented by formulae (2) and (3), respectively. [drawing 2]
# [2] = BIACORE (SPR) binding activity assay of MBP-ERLBD and ERLBD to immobilized 7α-(9-aminononyl)estradiol; conditions: analyte 20 μg/ml, 10 μl injection; single values of duplicate (n = 2)
# Procedure: Immobilization of 7α-(9-aminononyl)estradiol on the Sensor Chip CM5 (Pharmacia) was carried out as follows. HBS was used as a continuous flow buffer, and the flow rate was set at 5 μl/min. Carboxyl groups of carboxymethyl dextran on the Sensor Chip CM5 were activated by injecting 100 μl of 0.05 M N-hydroxysuccinimide (NHS)/0.2 M N-ethyl-N′-(3-dimethyl aminopropyl)-carbodiimide (EDC). 7α-(9-aminononyl)estradiol (approx. 7 mg/ml in benzene, approx. 4.5 mg/ml in 2-PrOH) was first diluted 10-fold in EtOH, further diluted 10-fold using 10 mM Na-acetate buffer, pH 4.0 or pH 4.5. Aliquots (10 to 50 μl) were injected onto the chip and immobilized by the amine coupling method. Then, excessive activated groups were blocked by injecting 100 μl of ethanolamine, pH 8.5. Further, non-covalently bound substances were washed out by 10 μl of 0.1 M Gly-HCl buffer, pH 2.5 and 10 mM HCl.
# The reaction principle was illustrated in FIG. 2. MBP-ERLBD (20 μg/ml, 10 μl) or ERLBD (20 μg/ml, 10 μl) which were prepared by the above-described method were injected onto the chip to assay their binding activities to the immobilized 7α-(9-aminononyl)estradiol. Regeneration and washing of sensor chips were performed by injecting 10 μl of 7% propanol/50 mM HCl.
# For the purpose of measuring the reproducibility and lot-to-lot variations of the binding activity assay, the binding activity assay was performed using different lots of MBP-ERLBD and ERLBD preparations to compare assay values in duplicate. The binding levels of MBP-ERLBD (Lot #90) (20 μg/ml, 10 μl) were 2124.9 and 2048.9 RU, indicating a high reproducibility (% CV=2.6%) (Table 1). Highly reproducible data were also obtained for ERLBD (Lots. #110, #111, #112, and #113) (20 μg/ml, 10 μl each), as shown in Table 1. […] The results also indicate that binding activities can be accurately compared lot-to-lot variations, and that this method may be applied to the product quality control, etc. This method has also enabled easily monitoring active fractions in the purification process of ERLBD, leading to shortening of its preparation time. Results of examination of the reproducibility of the binding activity assay and the comparison thereof among sample lots are summarized in Table 1.
# Using MBP-ERLBD (Lot #90) and ERLBD (Lots. #110, #111, #112, and #113) as the binding molecule, the binding activity was assayed in duplicate. RU is the unit of surface plasmon resonance intensity. % CV represents the dispersion in duplicate, indicating the larger the value, the greater the dispersion.
# [3] = Conventional RI method binding activity assay using labeled oestradiol; conditions: 100% = [6,7-3H]oestradiol bound to all the ERLBD added, single replicate values
# From the text: FIG. 5 schematically illustrates a conventional binding assay using a ligand labeled with radioisotope (RI). ^3H-ligand stands for [6,7-^3H]estradiol, MBP-LBD for MBP-ERLBD, and LBD for ERLBD After the ligand and the binding molecule are mixed and allowed to stand at room temperature for 6 hr, the resulting mixture is subjected to the Bound/Free separation procedure. The amount of [6,7-^3H]estradiol bound to MBP-ERLBD or ERLBD is detected with a scintilator.
# The binding activity of [6,7-^3H]oestradiol (Amersham Pharmacia Biotech) to a full-length human estrogen receptor-α, ERLBD, and MBP-ERLBD was assayed according to a conventional method using a ligand labeled with radioisotope (RI) (Sasson, S. and Notides, A. C. (1988) Mol. Endcrinol., Vol. 2, No. 4, p307-312). The reaction is schematically illustrated in FIG. 5. The RI value obtained when [6,7-^3H]oestradiol bound to all the ERLBD added to the assay system was taken as 100%, and the relative binding activity was calculated. A full-length human estrogen receptor-α and MBP-ERLBD (lot #87 and #90) were used as the binding molecule. […] The method of the present invention uses proteins as the binding molecule, and the reaction time is thus short, so that the binding activity can be measured with a good reproducibility without causing a decrease in the binding activity.
Molecule,"inhibitory activity compared with 1,25(OH)2 vitamin D3 (in words) [1]",IC50 [1] [nM],"Response [RU], binding level to immobilized 7α-(9-aminononyl)estradiol [2]","Relative activity (%), binding of [6,7-3H]oestradiol [3]"
"C=C1/C(=C\C=C2/CCC[C@]3(C)[C@@H]([C@H](C)OCCC(C)(C)O)CC[C@@H]23)C[C@@H](O)C[C@@H]1O [OCT, 1α,25-dihydroxy-22-oxavitamin D3]",almost the same inhibitory activities,110,–,–
"ERLBD: partial sequence containing the ligand binding domain of human estrogen receptor-α (Ala288-Arg555) (protein, UniProt P03372 288-555, looked up, fragment) AANLWPSPLMIKRSKKNSLALSLTADQMVSALLDAEPPILYSEYDPTRPFSEASMMGLLTNLADRELVHMINWAKRVPGFVDLTLHDQVHLLECAWLEILMIGLVWRSMEHPGKLLFAPNLLLDRNQGKCVEGMVEIFDMLLATSSRFRMMNLQGEEFVCLKSIILLNSGVYTFLSSTLKSLEEKDHIHRVLDKITDTLIHLMAKAGLTLQQQHQRLAQLLLILSHIRHMSNKGMEHLYSMKCKNVVPLYDLLLEMLDAHRLHAPTSR",–,–,about 2000 RU,about 10%
"ERLBD #110: lot of purified ERLBD (protein, UniProt P03372 288-555, looked up, fragment) AANLWPSPLMIKRSKKNSLALSLTADQMVSALLDAEPPILYSEYDPTRPFSEASMMGLLTNLADRELVHMINWAKRVPGFVDLTLHDQVHLLECAWLEILMIGLVWRSMEHPGKLLFAPNLLLDRNQGKCVEGMVEIFDMLLATSSRFRMMNLQGEEFVCLKSIILLNSGVYTFLSSTLKSLEEKDHIHRVLDKITDTLIHLMAKAGLTLQQQHQRLAQLLLILSHIRHMSNKGMEHLYSMKCKNVVPLYDLLLEMLDAHRLHAPTSR",–,–,1825.8 RU and 1815.0 RU,–
"ERLBD #113: lot of purified ERLBD (protein, UniProt P03372 288-555, looked up, fragment) AANLWPSPLMIKRSKKNSLALSLTADQMVSALLDAEPPILYSEYDPTRPFSEASMMGLLTNLADRELVHMINWAKRVPGFVDLTLHDQVHLLECAWLEILMIGLVWRSMEHPGKLLFAPNLLLDRNQGKCVEGMVEIFDMLLATSSRFRMMNLQGEEFVCLKSIILLNSGVYTFLSSTLKSLEEKDHIHRVLDKITDTLIHLMAKAGLTLQQQHQRLAQLLLILSHIRHMSNKGMEHLYSMKCKNVVPLYDLLLEMLDAHRLHAPTSR",–,–,1613.7 RU and 1597.3 RU,–
"ERLBD #111: lot of purified ERLBD (protein, UniProt P03372 288-555, looked up, fragment) AANLWPSPLMIKRSKKNSLALSLTADQMVSALLDAEPPILYSEYDPTRPFSEASMMGLLTNLADRELVHMINWAKRVPGFVDLTLHDQVHLLECAWLEILMIGLVWRSMEHPGKLLFAPNLLLDRNQGKCVEGMVEIFDMLLATSSRFRMMNLQGEEFVCLKSIILLNSGVYTFLSSTLKSLEEKDHIHRVLDKITDTLIHLMAKAGLTLQQQHQRLAQLLLILSHIRHMSNKGMEHLYSMKCKNVVPLYDLLLEMLDAHRLHAPTSR",–,–,1032.0 RU and 990.3 RU,–
"ERLBD #112: lot of purified ERLBD (protein, UniProt P03372 288-555, looked up, fragment) AANLWPSPLMIKRSKKNSLALSLTADQMVSALLDAEPPILYSEYDPTRPFSEASMMGLLTNLADRELVHMINWAKRVPGFVDLTLHDQVHLLECAWLEILMIGLVWRSMEHPGKLLFAPNLLLDRNQGKCVEGMVEIFDMLLATSSRFRMMNLQGEEFVCLKSIILLNSGVYTFLSSTLKSLEEKDHIHRVLDKITDTLIHLMAKAGLTLQQQHQRLAQLLLILSHIRHMSNKGMEHLYSMKCKNVVPLYDLLLEMLDAHRLHAPTSR",–,–,1255.7 RU and 1203.9 RU,–

# Second part, led by results:
"inhibitory activity compared with 1,25(OH)2 vitamin D3 (in words) [1]",IC50 [1] [nM],"Response [RU], binding level to immobilized 7α-(9-aminononyl)estradiol [2]",Molecule,"Relative activity (%), binding of [6,7-3H]oestradiol [3]"
almost the same inhibitory activities,520,–,"C=C1/C(=C\C=C2/CCC[C@@]3(C)C2CC[C@@H]3[C@H](C)CCCC(C)(O)CCCCCCCCCCN)C[C@@H](O)C[C@@H]1O (stereo partly drawn) [ED-533, (1α,3β,5Z,7E)-25-(10-aminodecanyl)-27-nor-9,10-secocholesta-5,7,10(19)-triene-1,3,25-triol]",–
almost the same inhibitory activities,500,–,"C=C1/C(=C\C=C2/CCC[C@]3(C)[C@@H]([C@H](C)CCCC(C)(C)O)CC[C@@H]23)C[C@@H](O)[C@@H](OCCCO)[C@@H]1O [ED-71, 2β-(3-Hydroxypropoxy)-1α,25-dihydroxyvitamin D3]",–
